Data from patent US10980765B2, “Isothiocyanatostilbenes as a novel method and product for treating cancer” (BOARD OF SUPERVISORS OF LOUISIANA STATE UNIVERSITY AND …, priority 2015, dated 2021).

Experiments:
[1] = tested on: interaction of human immunodeficiency virus type-1 (HIV-1) with CD4 T-cell receptors; conditions: cited from earlier work
[2] = tested on: MDA-MB-231/GFP human breast cancer cells; test: Xenograft study, orthotopic breast tumor growth; format: in vivo, Athymic nude mice; conditions: 5 mg/kg then 10 mg/kg i.p.
Text: Data are shown as average+S.E.M., *p<0.05.
Xenograft studies: All animal experiments were approved by the Institutional Animal Care and Use Committee, University of Louisiana at Monroe, and were handled in strict accordance with good animal practice as defined by the NIH guidelines. Athymic nude mice (Foxn1^nu/Foxn1^+, 4-5 weeks, female) were purchased from Harlan (Indianapolis, Ind.). The mice had free access to standard pellet food and water. The animals were acclimated to animal house facility conditions at a temperature of 18-25° C., with a relative humidity of 55 to 65% and a 12 h light/dark cycle, for one week prior to the experiments. MDA-MB-231/GFP human breast cancer cells were cultured and resuspended in serum-free DMEM medium (20 μl). After anesthesia, cell suspensions (1×10^6 cells/20 μl) were inoculated subcutaneously into the second mammary gland fat pad just beneath the nipple of each animal to generate orthotopic breast tumors. […] The mice were monitored by measuring tumor volume, body weight, and clinical observation. Tumor volume (V) was calculated by V=L/2×W^2, where L was the length and W was the width of tumors. The results are presented as average ±S.E.M. Differences among various treatment groups were determined by the analysis of variance (ANOVA) followed by Dunnett's test using PASW statistics version 18. […]

F0F1-ATP synthase = conditions: cited from earlier work
c-Met M1250T (M1268T) = c-Met M1250T (M1268T) (Homo sapiens, UniProt P08581, M1250T); test: Phosphorylation inhibition assay (Z′-LYTE Kinase Assay-Tyr6 Peptide), mutant c-Met; format: biochemical; conditions: cell-free kinase assay, 200 μM ATP
c-Met M1250T (M1268T), sequence (P08581 956-1390 M1250T limits assumed): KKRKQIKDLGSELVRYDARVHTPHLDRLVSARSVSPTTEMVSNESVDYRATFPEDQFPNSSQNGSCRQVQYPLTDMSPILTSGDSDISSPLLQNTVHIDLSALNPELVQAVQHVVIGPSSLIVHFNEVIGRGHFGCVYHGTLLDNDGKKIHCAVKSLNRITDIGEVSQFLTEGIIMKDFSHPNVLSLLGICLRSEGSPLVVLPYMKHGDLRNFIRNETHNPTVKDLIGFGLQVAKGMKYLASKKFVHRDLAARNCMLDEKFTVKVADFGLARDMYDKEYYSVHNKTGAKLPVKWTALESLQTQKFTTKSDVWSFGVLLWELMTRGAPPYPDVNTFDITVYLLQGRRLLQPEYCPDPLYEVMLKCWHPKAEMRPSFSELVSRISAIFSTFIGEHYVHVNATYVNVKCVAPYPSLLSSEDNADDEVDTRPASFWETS
Protocol: (§1) Western blot was used to analyze pMet expression. […] Western blot was used to analyze the indicated proteins.
(§2) Phosphorylation inhibition assay: Z′-LYTE™ Kinase Assay-Tyr6 Peptide kit (Invitrogen) was used to assess the ability of tested compounds to inhibit c-Met phosphorylation. […] After 1 hour incubation at room temperature, 10 μl development solution containing site-specific protease was added to each well. Incubation was continued for 1 hour. The reaction was then stopped, and the fluorescent signal ratio of 445 nm (coumarin)/520 nm (fluorescein) was determined on a plate reader (BioTek FLx800™), which reflects the peptide substrate cleavage status and/or the kinase inhibitory activity in the reaction. […] The IC50 value for each compound was calculated by nonlinear regression of log concentration versus % c-Met phosphorylation ±S.E.M., implemented in GraphPad Prism version 5.0 (GraphPad Software, CA, USA).

EGFR = target: T1, EGFR (Homo sapiens, UniProt P00533); test: Western blot of EGFR activation by EGF in DU145 cells; format: cell-based; conditions: 4 μM DIDS or 25 μM H2DIDS; DU145, 100 ng/ml EGF 20 min
T1 construct: endogenous in cells; host or cells: DU145
T1 sequence (P00533 25-1210): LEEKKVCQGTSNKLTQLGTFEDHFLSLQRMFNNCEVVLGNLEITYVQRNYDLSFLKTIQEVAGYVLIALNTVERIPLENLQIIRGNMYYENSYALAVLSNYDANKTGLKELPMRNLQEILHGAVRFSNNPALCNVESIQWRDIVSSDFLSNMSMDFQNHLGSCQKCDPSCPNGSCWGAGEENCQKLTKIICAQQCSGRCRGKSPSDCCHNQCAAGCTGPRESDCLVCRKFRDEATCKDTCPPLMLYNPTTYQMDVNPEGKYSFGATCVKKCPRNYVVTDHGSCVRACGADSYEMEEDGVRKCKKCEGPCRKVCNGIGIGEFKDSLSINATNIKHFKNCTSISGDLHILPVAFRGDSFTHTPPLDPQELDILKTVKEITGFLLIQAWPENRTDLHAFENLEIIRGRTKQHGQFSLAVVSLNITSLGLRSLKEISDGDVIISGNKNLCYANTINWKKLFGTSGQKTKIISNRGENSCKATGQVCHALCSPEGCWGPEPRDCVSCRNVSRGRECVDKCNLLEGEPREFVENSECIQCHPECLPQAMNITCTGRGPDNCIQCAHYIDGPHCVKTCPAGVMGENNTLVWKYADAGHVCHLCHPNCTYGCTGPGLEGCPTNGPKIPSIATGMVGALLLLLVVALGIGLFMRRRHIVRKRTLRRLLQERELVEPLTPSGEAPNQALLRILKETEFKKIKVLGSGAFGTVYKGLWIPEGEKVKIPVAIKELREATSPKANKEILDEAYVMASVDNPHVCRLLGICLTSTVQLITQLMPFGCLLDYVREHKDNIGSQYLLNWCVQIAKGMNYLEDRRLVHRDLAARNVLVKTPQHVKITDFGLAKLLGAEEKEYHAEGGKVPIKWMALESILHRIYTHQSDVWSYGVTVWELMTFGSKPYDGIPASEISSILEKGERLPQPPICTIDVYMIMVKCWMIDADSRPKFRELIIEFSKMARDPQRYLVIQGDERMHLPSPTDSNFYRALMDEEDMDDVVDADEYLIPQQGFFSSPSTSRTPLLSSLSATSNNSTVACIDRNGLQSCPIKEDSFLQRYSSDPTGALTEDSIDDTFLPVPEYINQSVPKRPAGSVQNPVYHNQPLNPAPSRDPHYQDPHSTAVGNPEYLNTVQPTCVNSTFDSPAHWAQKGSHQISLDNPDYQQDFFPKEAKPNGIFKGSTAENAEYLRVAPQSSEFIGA
Protocol: (§3) Western blot analysis: Cells were grown to ˜70% confluency prior to treatment. Cells were serum-starved in serum-free media for 30 minutes prior to treatment in complete media or serum-free media for the indicated times. Cell lysates were collected in Laemmli (125 mM Tris, 4% SDS, 0.01% bromophenol blue, 30% sucrose) containing 0.5% β-mercaptoethanol and boiled ˜8 minutes. Primary antibodies include: phospho-c-Met (Y1234/1235), phospho-Akt (S473), pEGFR […], pIGF-IRβ (Y1135/1136) (Cell Signaling Technology; Beverly, Mass.); α-actin (Sigma-Aldrich), c-Met (C-28) (Life Technologies). Secondary antibodies include: horseradish peroxidase-conjugated anti-rabbit and anti-mouse (GE Healthcare; Pittsburgh, Pa.). ECL 2 was used for chemiluminescent detection (Thermo Scientific; Rockford, Ill.). Densitometry was calculated using ImageJ (NIH).

Akt = test: Western blot of downstream Akt (phospho-Akt) in HGF-treated DU145 cells; format: cell-based; conditions: ˜8 μM compound, 33 ng/ml HGF 20 min, serum-free
Protocol: as §3

[3] = tested on: matrix metalloproteinase release; conditions: cited from earlier work
DU145 cells [4] = test: Wound healing; format: cell-based
Protocol: (§4) Cells were fixed and stained for actin. Representative images are shown. […] Data are shown as mean±S.E.M.; n=3.
(§5) For invasion (FIGS. 4C and 4D), wounded cells were overlaid with Matrigel diluted 1:5 in serum-free media; n=3.
(§6) Wound healing and invasion: DU145 cells were grown to ˜100% confluency prior to wounding with the IncuCyte™ WoundMaker™ (Essen Bioscience; Ann Arbor, Mich.) and washed once with complete media. For invasion, cells were covered with Matrigel diluted 1:5 in serum-free RPMI following wounding. […] Images were taken every 4 hours with the IncuCyte™ ZOOM imaging system (Essen Bioscience). Quadruplicate replicates were used in each experiment. Data are presented as percent wound density ±standard error of the mean (S.E.M.).

wild-type c-Met = wild-type c-Met (Homo sapiens, UniProt P08581); test: Phosphorylation inhibition assay (Z′-LYTE Kinase Assay-Tyr6 Peptide), wild-type c-Met; format: biochemical; conditions: cell-free kinase assay, 200 μM ATP; read-out: IC50, activation of wild-type c-Met
wild-type c-Met, sequence (P08581 25-1390): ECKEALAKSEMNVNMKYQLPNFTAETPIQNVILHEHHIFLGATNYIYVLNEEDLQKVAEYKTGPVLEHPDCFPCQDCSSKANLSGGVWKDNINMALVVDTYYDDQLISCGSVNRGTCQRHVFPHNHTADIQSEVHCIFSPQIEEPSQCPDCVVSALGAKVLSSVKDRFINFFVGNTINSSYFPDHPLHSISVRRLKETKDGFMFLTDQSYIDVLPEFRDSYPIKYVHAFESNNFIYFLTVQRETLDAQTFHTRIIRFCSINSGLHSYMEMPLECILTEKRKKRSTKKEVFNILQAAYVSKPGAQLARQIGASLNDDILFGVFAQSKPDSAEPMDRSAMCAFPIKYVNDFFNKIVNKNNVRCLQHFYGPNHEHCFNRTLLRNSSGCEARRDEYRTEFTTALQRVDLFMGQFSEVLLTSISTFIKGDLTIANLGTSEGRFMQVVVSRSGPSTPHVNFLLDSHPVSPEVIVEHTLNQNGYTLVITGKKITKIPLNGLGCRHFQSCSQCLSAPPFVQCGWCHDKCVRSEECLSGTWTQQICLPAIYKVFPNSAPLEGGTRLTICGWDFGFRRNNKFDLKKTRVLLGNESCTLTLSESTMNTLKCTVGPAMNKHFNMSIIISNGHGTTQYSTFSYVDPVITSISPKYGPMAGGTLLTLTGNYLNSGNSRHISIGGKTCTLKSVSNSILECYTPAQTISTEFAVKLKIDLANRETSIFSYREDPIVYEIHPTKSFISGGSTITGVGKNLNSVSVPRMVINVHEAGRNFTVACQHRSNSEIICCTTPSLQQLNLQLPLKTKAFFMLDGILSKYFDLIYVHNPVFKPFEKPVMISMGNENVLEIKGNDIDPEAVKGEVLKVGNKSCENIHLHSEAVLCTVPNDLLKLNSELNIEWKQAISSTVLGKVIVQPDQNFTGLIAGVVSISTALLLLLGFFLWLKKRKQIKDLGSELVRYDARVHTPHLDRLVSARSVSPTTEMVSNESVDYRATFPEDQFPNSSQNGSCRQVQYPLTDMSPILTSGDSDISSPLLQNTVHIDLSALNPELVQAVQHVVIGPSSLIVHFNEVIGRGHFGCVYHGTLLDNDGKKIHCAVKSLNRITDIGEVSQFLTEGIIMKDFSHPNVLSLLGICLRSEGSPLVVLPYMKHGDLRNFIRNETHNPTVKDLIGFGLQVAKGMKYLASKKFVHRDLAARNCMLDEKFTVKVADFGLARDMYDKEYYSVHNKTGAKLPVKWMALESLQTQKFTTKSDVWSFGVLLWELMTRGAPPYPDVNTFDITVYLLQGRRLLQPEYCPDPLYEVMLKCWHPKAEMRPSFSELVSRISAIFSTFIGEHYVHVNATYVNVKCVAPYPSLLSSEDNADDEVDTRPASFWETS
Protocol: as §1, §2

DU145 cells [5] = test: Invasion through Matrigel; format: cell-based; conditions: indicated concentrations; 33 ng/mL HGF; Matrigel 1:5
Protocol: as §5, §6

c-Met = c-Met (Homo sapiens, UniProt P08581); test: Western blot of pMet in c-Met amplified H1993 lung cancer cells without HGF; format: cell-based; parameters: endogenous in cells; conditions: 5 μM compound; no HGF, constitutive c-Met activation
c-Met, sequence (P08581 25-1390): as above
Protocol: as §1
H1993 cells have c-Met amplification such that they have high levels of pMet, even in the absence of HGF, due to constitutive c-Met dimerization and autophosphorylation.
as §3

DU145 cells [6] = test: Scattering assay; format: cell-based; conditions: 4 μM DIDS or 25 μM H2DIDS
Protocol: as §4
Cells were fixed and stained for actin. Representative images are shown.
Scattering assay: DU145 cells were grown to ˜50% confluency. […] Cells were fixed with 4% paraformaldehyde and stained with Oregon Green 488 phalloidin (Invitrogen; Carlsbad, Calif.). Images were acquired on an Eclipse TE300 inverted microscope (Nikon; Tokyo, Japan) with NIS Elements version 4.13.04 software. Presented images were taken using a 10× objective.

Compound: O=S(=O)(O)c1cc(N=C=S)ccc1C=Cc1ccc(N=C=S)cc1S(=O)(=O)O [DIDS, 4,4′-Diisothiocyanatostilbene-2,2′-disulfonic acid]
- concentration preventing interaction of HIV-1 with CD4 T-cell receptors [1]: low micromolar concentrations
- tumor size (caliper) ([2]; 3×/week): began to reduce tumor size towards the end of the experiment
- overall tumor weight at necropsy ([2]; end of experiment, *p<0.05): Differences in overall tumor weight were evident
- concentration reducing activity of F0F1-ATP synthase (F0F1-ATP synthase): low micromolar concentrations
- IC50 (c-Met M1250T (M1268T)): 370 nM
- EGFR activation (EGFR): do not significantly reduce
- reduction of downstream Akt (Akt): ~90%
- concentration inhibiting matrix metalloproteinase release [3]: ≥ 400 µM
- HGF-induced wound healing (DU145 cells [4]; 4 μM DIDS or 25 μM H2DIDS, 33 ng/ml HGF): significantly reduced
- EGF-mediated wound healing (DU145 cells [4]; 4 μM DIDS or 25 μM H2DIDS, 100 ng/ml EGF): minimal effects
- HGF-induced wound healing, dose response (DU145 cells [4]; indicated concentrations, 33 ng/mL HGF): reduce HGF-induced wound healing in a dose response manner
- IC50 (wild-type c-Met): 300 nM
- HGF-induced invasion through Matrigel (DU145 cells [5]): inhibited HGF-induced invasion through Matrigel in a dose-dependent manner
- pMet levels in H1993 cells (c-Met): much less significant effects
- HGF-induced cell scattering (DU145 cells [6]; 33 ng/ml HGF overnight): able to reduce HGF-induced
- EGF-induced cell scattering (DU145 cells [6]; 100 ng/ml EGF overnight): not EGF-induced
